Source: PMC7034112, “Bioorganometallic derivatives of 4-hydrazino-benzenesulphonamide as carbonic anhydrase inhibitors: synthesis, characterisation and biological evaluation” (Journal of Enzyme Inhibition and Medicinal Chemistry, 2020)

Experiments:
Assay in all cases: stopped-flow CO2 hydrase assay
Type in all cases: biochemical
Conditions in all cases: CO2 […], […] Hepes pH […] Na2SO4, […] h preincubation at room temperature
[1] = biological target: T1, hCA II (Homo sapiens, UniProt P00918)
T1 construct: gene CA2; recombinant, obtained in-house
Description: stopped-flow CO2 hydrase assay on hCA II

[2] = biological target: T2, hCA I (Homo sapiens, UniProt P00915)
T2 construct: gene CA1; recombinant, obtained in-house
Description: stopped-flow CO2 hydrase assay on hCA I

[3] = biological target: T3, hCA XII (Homo sapiens, UniProt O43570)
T3 construct: gene CA12; recombinant, obtained in-house
Description: stopped-flow CO2 hydrase assay on hCA XII

[4] = biological target: T4, hCA IX (Homo sapiens, UniProt Q16790)
T4 construct: gene CA9; recombinant, obtained in-house
Description: stopped-flow CO2 hydrase assay on hCA IX

T2 sequence (P00915 2-261): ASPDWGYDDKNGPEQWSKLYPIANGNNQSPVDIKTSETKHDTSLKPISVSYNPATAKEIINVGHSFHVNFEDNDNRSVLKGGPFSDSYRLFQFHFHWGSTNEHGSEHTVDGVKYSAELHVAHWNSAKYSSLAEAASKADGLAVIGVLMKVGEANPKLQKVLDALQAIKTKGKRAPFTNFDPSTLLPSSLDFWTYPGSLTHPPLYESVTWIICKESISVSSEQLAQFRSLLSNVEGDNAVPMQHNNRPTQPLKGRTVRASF
T3 sequence (O43570 25-354): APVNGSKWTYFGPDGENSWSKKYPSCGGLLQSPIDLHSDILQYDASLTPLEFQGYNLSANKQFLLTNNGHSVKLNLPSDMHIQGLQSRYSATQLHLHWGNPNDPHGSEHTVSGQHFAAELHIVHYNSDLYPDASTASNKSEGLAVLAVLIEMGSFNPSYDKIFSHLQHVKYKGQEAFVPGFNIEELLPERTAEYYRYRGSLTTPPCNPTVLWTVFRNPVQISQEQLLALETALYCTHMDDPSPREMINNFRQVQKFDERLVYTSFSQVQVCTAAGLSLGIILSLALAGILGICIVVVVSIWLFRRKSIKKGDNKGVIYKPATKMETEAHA

| Ki [1] [nM] | Ki [2] [nM] | Ki [3] [nM] | Ki [4] [nM] | Substance |
| --- | --- | --- | --- | --- |
| 9.3 | 3.6 | 1.9 | 41.9 | [{(η^5-C5H4)-C(CH3)=N-N(H)-C6H4-4-SO2NH2}]FeCp [3b] |
| 1.7 | 13.2 | 4.9 | 49.9 | [{(η^5-C5H4)-CH=N–N(H)-C6H4-4-SO2NH2}]FeCp [3a] |

Further lines, the substance ahead of its results:

| Substance | Ki [1] [nM] | Ki [2] [nM] | Ki [3] [nM] | Ki [4] [nM] |
| --- | --- | --- | --- | --- |
| [{(η^5-C5H4)-C(CH3)=N–N(H)-C6H4-4-SO2NH2}]Mn(CO)3 [2b] | 11.2 | 269 | 3.3 | 221 |
| [{(η^5-C5H4)-C(CH3)=N–N(H)-C6H4-4-SO2NH2}]re(CO)3 [1b] | 9.7 | 3.7 | 3.8 | 25 |
| [{(η^5-C5H4)-CH=N–N(H)-C6H4-4-SO2NH2}]Mn(CO)3 [2a] | 8.2 | 5.9 | 3.1 | 2.1 |
| [{(η^5-C5H4)-CH=N–N(H)-C6H4-4-SO2NH2}]re(CO)3 [1a] | 22.4 | 7.5 | 24.4 | 580 |
